This passage reports inhibition results from US20250228242A1 (priority 2021, published 2025).

Where a name gives a salt, the structure may show the parent alone.

The test system of this assay is P. infestans. Put plainly: whole plant or invertebrate. The format is in vivo. The following applies: Phytophthora infestans, in Solanum tuberosum, read-out: P. infestans % inhibition.

For `Cc1ccc(-c2noc(-c3ccc(S(C)(=O)=O)cc3)n2)cc1` [Compound 89, 3-(4-Methylphenyl)-5-[4-(methylsulfonyl)phenyl]-1,2,4-oxadiazole], the inhibition at 100 µM worked out at 8%.
`CCc1ccc(-c2cc(-c3ccc(N4CCC4)cc3)on2)cc1` [Compound 90, 5-[4-(Azetidin-1-yl)phenyl]-3-(4-ethylphenyl)-1,2-oxazole]: the inhibition at 100 µM turned out to be 13%.
Turning to `Clc1ccccc1-c1cc(-c2ccc(N3CCCCC3)cc2)on1` [Compound 91, 1-{4-[3-(2-Chlorophenyl)-1,2-oxazol-5-yl]phenyl}piperidine], the inhibition at 100 µM was 29%.
As to `O=S(=O)(Nc1ccc(-c2n[nH]c(-c3ccc(C(F)(F)F)cc3)n2)cc1)c1ccc(Cl)cc1` [Compound 92, 4-Chloro-N-(4-{5-[4-(trifluoromethyl)phenyl]-1H-1,2,4-triazol-3-yl}phenyl)benzenesulfonamide], the inhibition at 100 µM is 84%.
`CC(C)[C@H](N)C(=O)Nc1ccc(-c2cc(-c3cccc(F)c3)on2)cc1` [Compound 93, (2S)-2-Amino-N-{4-[5-(3-fluorophenyl)-1,2-oxazol-3-yl]phenyl}-3-methylbutanamide hydrochloride]: the inhibition at 100 µM was 95%.
For the compound `O=C(Nc1ccccc1)Nc1ccc(-c2nc(-c3cccc(C(F)(F)F)c3)no2)cc1` [Compound 94, 1-Phenyl-3-(4-{3-[3-(trifluoromethyl)phenyl]-1,2,4-oxadiazol-5-yl}phenyl)urea], the inhibition at 100 µM was determined as 9%.
Regarding `CCOC(=O)c1ccc(-c2noc(-c3ccc(SC)cc3)n2)cc1` [Compound 95, Ethyl 4-{5-[4-(methylsulfanyl)phenyl]-1,2,4-oxadiazol-3-yl}benzoate], the inhibition at 100 µM was determined as 9%.
`CSc1ccc(-c2nc(-c3ccc(C(=O)O)cc3)no2)cc1` [Compound 96, 4-{5-[4-(Methylsulfanyl)phenyl]-1,2,4-oxadiazol-3-yl}benzoic acid]: the inhibition at 100 µM was 4%.
With `CC1(C)CCc2cc(-c3cc(-c4cccc(Br)c4)[nH]n3)ccc2O1` [Compound 97, 5-(3-Bromophenyl)-3-(2,2-dimethyl-3,4-dihydro-2H-chromen-6-yl)-1H-pyrazole] the figure was 10%; with `CN1CCOc2cc(-c3nc(-c4cccc(N5CCOCC5)c4)no3)ccc21` [Compound 98, 4-Methyl-7-{3-[3-(morpholin-4-yl)phenyl]-1,2,4-oxadiazol-5-yl}-3,4-dihydro-2H-1,4-benzoxazine], 22%.
Take `Cc1ccc([N+](=O)[O-])cc1-c1nc(-c2ccc(F)cc2)n[nH]1` [Compound 99, 3-(4-Fluorophenyl)-5-(2-methyl-5-nitrophenyl)-1H-1,2,4-triazole]: the inhibition at 100 µM came to 64%.
In the case of `Cc1ccc(N)cc1-c1nc(-c2ccc(F)cc2)n[nH]1` [Compound 100, 5-(3-Amino-6-methylphenyl)-3-(4-fluorophenyl)-1H-1,2,4-triazole], the inhibition at 100 µM is 51%.
`CCNC(=O)Nc1ccc(C)c(-c2nc(-c3ccc(F)cc3)n[nH]2)c1` [Compound 101, 1-Ethyl-3-{3-[3-(4-fluorophenyl)-1H-1,2,4-triazol-5-yl]-4-methylphenyl}urea]: the inhibition at 100 µM was 69%.
For the compound `Cc1ccc(NC(=O)c2cccc(Cl)c2)cc1-c1nc(-c2ccc(F)cc2)n[nH]1` [Compound 102, 3-Chloro-N-{3-[3-(4-fluorophenyl)-1H-1,2,4-triazol-5-yl]-4-methylphenyl}benzamide], the inhibition at 100 µM came to 30%.
For `Cc1ccc(NC(=O)[C@@H](N)Cc2ccccc2)cc1-c1nc(-c2ccc(F)cc2)n[nH]1` [Compound 103, (2S)-2-Amino-N-{3-[3-(4-fluorophenyl)-1H-1,2,4-triazol-5-yl]-4-methylphenyl}-3-phenylpropanamide hydrochloride], the inhibition at 100 µM is 99%.
With `COc1ccc(-c2n[nH]c(-c3cccc(N(C)C)c3)n2)cc1OC` [Compound 105, 3-[3-(3,4-Dimethoxyphenyl)-1H-1,2,4-triazol-5-yl]-N,N-dimethylaniline], the inhibition at 100 µM was determined as 77%.
In the case of `CCOc1cccc(-c2nc(-c3cccc(C)c3)n[nH]2)c1` [Compound 106, 5-(3-Ethoxyphenyl)-3-(3-methylphenyl)-1H-1,2,4-triazole], the inhibition at 100 µM is 44%.
Take `Cc1cccc(-c2n[nH]c(-c3cccc(O)c3)n2)c1` [Compound 107, 5-(3-Hydroxyphenyl)-3-(3-methylphenyl)-1H-1,2,4-triazole]: the inhibition at 100 µM is 91%.
For the compound `CCOC(=O)Nc1cccc(-c2c[nH]c(-c3ccc(F)cc3)n2)c1` [Compound 108, Ethyl {3-[2-(4-fluorophenyl)-1H-imidazol-5-yl]phenyl}carbamate], the inhibition at 100 µM worked out at 51%.
The figure for `c1cc2c(cc1-c1cnc(-c3ccc(N4CCOCC4)cc3)[nH]1)CCO2` [Compound 109, 4-{4-[5-(2,3-Dihydro-1-benzofuran-5-yl)-1H-imidazol-2-yl]phenyl}morpholine] is 11%; for `CCOc1ccc(-c2coc(-c3cccc(C(C)C)c3)n2)cc1` [Compound 110, 4-(4-Ethoxyphenyl)-2-[3-(propan-2-yl)phenyl]-1,3-oxazole] it is 18%; for `Clc1ccc(-c2cc(-c3ccc4c(c3)OCCO4)n[nH]2)cc1` [Compound 111, 5-(4-Chlorophenyl)-3-(2,3-dihydro-1,4-benzodioxin-6-yl)-1H-pyrazole] it is 24%.
In the case of `Brc1cccc(-c2cc(-c3ccc4nccnc4c3)n[nH]2)c1` [Compound 112, 6-[5-(3-Bromophenyl)-1H-pyrazol-3-yl]quinoxaline], the inhibition at 100 µM was 44%.
In the case of `COc1ccc(-c2c[nH]c(-c3ccc(Cl)cc3)n2)cc1` [Compound 113, 2-(4-Chlorophenyl)-5-(4-methoxyphenyl)-1H-imidazole], the inhibition at 100 µM stood at 90%.
Turning to `CN1CCN(c2cccc(-c3nc(-c4ccc5c(c4)OCCO5)co3)c2)CC1` [Compound 114, 1-Methyl-4-{3-[4-(2,3-dihydro-1,4-benzodioxin-6-yl)-1,3-oxazol-2-yl]phenyl}piperazine], the inhibition at 100 µM worked out at 93%.
In the case of `CCOC(=O)c1ccc(-c2ncc(-c3ccc(C)cc3)o2)cc1` [Compound 115, Ethyl 4-[5-(4-methylphenyl)-1,3-oxazol-2-yl]benzoate], the inhibition at 100 µM was determined as 12%.
With `Cc1ccc(-c2cnc(-c3ccc(C(=O)O)cc3)o2)cc1` [Compound 116, 4-[5-(4-Methylphenyl)-1,3-oxazol-2-yl]benzoic acid], the inhibition at 100 µM is 72%.
With `COc1ccc(-c2c[nH]c(-c3ccc(Br)cc3)n2)cc1` [Compound 117, 2-(4-Bromophenyl)-5-(4-methoxyphenyl)-1H-imidazole] the figure was 97%.
As to `Oc1ccc(-c2c[nH]c(-c3ccc(Br)cc3)n2)cc1` [Compound 118, 2-(4-Bromophenyl)-5-(4-hydroxyphenyl)-1H-imidazole], the inhibition at 100 µM turned out to be 83%.
With `CS(=O)(=O)Nc1cccc(-c2ncc(-c3ccc(Cl)c(Cl)c3)o2)c1` [Compound 119, N-{3-[5-(3,4-Dichlorophenyl)-1,3-oxazol-2-yl]phenyl} methanesulfonamide] the figure was 15%.
The figure for `COC(=O)Nc1cccc(-c2ncc(-c3ccc(Cl)c(Cl)c3)o2)c1` [Compound 120, Methyl {3-[5-(3,4-dichlorophenyl)-1,3-oxazol-2-yl]phenyl}carbamate] is 12%.
With `CCOC(=O)c1cccc(-c2ncc(-c3ccc(C(F)(F)F)cc3OC)o2)c1` [Compound 121, Ethyl 3-{5-[2-methoxy-4-(trifluoromethyl)phenyl]-1,3-oxazol-2-yl}benzoate], the inhibition at 100 µM turned out to be 28%.
With `COc1cc(C(F)(F)F)ccc1-c1cnc(-c2cccc(C(=O)O)c2)o1` [Compound 122, 3-{5-[2-Methoxy-4-(trifluoromethyl)phenyl]-1,3-oxazol-2-yl}benzoic acid] the figure was 36%; with `CCN(CC)C(=O)c1cccc(-c2ncc(-c3ccc(C(F)(F)F)cc3OC)o2)c1` [Compound 123, N,N-diethyl-3-{5-[2-methoxy-4-(trifluoromethyl)phenyl]-1,3-oxazol-2-yl}benzamide], 33%; with `COc1ccc(S(=O)(=O)Nc2ccc(-c3coc(-c4ccc(OC(C)C)cc4)n3)cc2)cc1` [Compound 124], 4%.
In the case of `CCc1ccc(-c2c[nH]c(-c3cccc(C(=O)O)c3)n2)cc1` [Compound 125, 3-[4-(4-Ethylphenyl)-1H-imidazol-2-yl]benzoic acid], the inhibition at 100 µM was 30%.
`CCc1ccc(-c2cc(-c3cccc(NC(=O)OCCOC)c3)[nH]n2)cc1` [Compound 126, 2-Methoxyethyl {3-[5-(4-ethylphenyl)-1H-pyrazol-3-yl]phenyl}carbamate]: the inhibition at 100 µM is 81%.
`O=C(Nc1ccc(F)cc1)Nc1ccc(-c2cc(-c3cccc(OC(F)(F)F)c3)n[nH]2)cc1` [Compound 127, 1-(4-Fluorophenyl)-3-(4-{5-[3-(trifluoromethoxy)phenyl]-1H-pyrazol-3-yl}phenyl)urea]: the inhibition at 100 µM was 18%.
As to `O=C(Nc1ccc(-c2cc(-c3cccc(OC(F)(F)F)c3)n[nH]2)cc1)C(F)(F)F` [Compound 128, 2,2,2-Trifluoro-N-(4-{5-[3-(trifluoromethoxy)phenyl]-1H-pyrazol-3-yl}phenyl)acetamide], the inhibition at 100 µM amounted to 6%.
The figure for `COc1cc(Cl)cc(-c2nc(-c3ccc(OC(F)(F)F)cc3)co2)c1` [Compound 130, 2-(3-Chloro-5-methoxyphenyl)-4-[4-(trifluoromethoxy)phenyl]-1,3-oxazole] is 9%.
The figure for `Cc1cc(F)ccc1-c1cnc(-c2cccc(NC(=O)[C@@H](N)CCC(N)=O)c2)o1` [Compound 131, (2S)-2-Amino-N1-{3-[5-(4-fluoro-2-methylphenyl)-1,3-oxazol-2-yl]phenyl}pentanediamide hydrochloride] is 47%.
With `Oc1cc(Cl)cc(-c2nc(-c3ccc(OC(F)(F)F)cc3)co2)c1` [Compound 132, 2-(3-Chloro-5-hydroxyphenyl)-4-[4-(trifluoromethoxy)phenyl]-1,3-oxazole], the inhibition at 100 µM was 66%.

The term inhibition denotes the share of the control response that was lost under treatment.
